Measurements taken from US20080206198A1, “Compounds and methods for pharmico-gene therapy of epithelial sodium channel associated disorders” (priority 2003, published 2008).
Peptide text beside a SMILES is read from it. * marks the point of attachment. Cbz = O=C(OCc1ccccc1)*

What was measured:
IB3-1 cells = test: AAV2 FLAG-Luc transduction of IB3-1 cells; type: cell-based, human; conditions: 20 to 80 μM
Text: A. To screen for agents that enhance rAAV transduction, any number of cells can be used. A range of concentrations of the agent to be tested can be determined based on, for instance desirable profiles of the agent, desirable toxicity profiles of the agent and/or concentration of the agents employed in vivo. The usefulness of the cell type chosen for the screen can be confirmed by testing compounds, e.g., proteasome inhibitors such as LLnL and ZLL which are known to increase rAAV transduction. For example, a AAV2 FLAG-Luc vector was employed to transduce HeLa, ferret fibroblasts, IB3 and Huh (liver) cells in the presence or absence of the proteasome inhibitor MG132. MG132 was confirmed to enhance AAV transduction in all cell types tested: HeLa cell transduction was enhanced about 500-fold at 80 μM, and 200-fold at 40 μM, MG132; ferret fibroblast cell transduction was enhanced about 200-fold at 20 μM, and 17-fold at 4 μM, MG132; IB3-1 cell transduction was enhanced about 30 to 70-fold at 20 to 80 μM MG132; and Huh-7 cell transduction was enhanced about 15-fold at 20 to 80 μM MG132. There was no difference in rAAV transduction efficiency in HeLa cells when either DMSO or ETOH was used as a vehicle for MG132. B. HeLa cells were selected to screen for additional agents that enhance rAAV transduction, although any cell strain or line; or primary cells, may be employed. […]

mouse lung = test: Intranasal AAV2-Luc with anthracyclines in Balb/c mice (lung luciferase); type: in vivo; conditions: 10% HDE intranasal, day 7
Text: Animals were followed for seven days post dose.
The dose of modulator was based on the Human Dose Equivalent (HDE) and is summarized below in Table 4. For intranasal dose administration, the dose was held constant at 10% of the HDE.
On the day of sacrifice, the left lung was clamped off at the level of the extrapulmonary bronchi, removed and frozen on dry ice. The left lung was homogenized and processed for luciferase expression using Promega's luciferase assay system (Madison, Wis.). Luminescence was measured using the Berthold AutoLumat LB953 instrument. Samples were normalized for total protein using Pierce's Coomassie Plus Protein Assay Reagent (Rockford, Ill.).

ENaC = test: Amiloride-sensitive Isc time course in polarized CuFi epithelia; type: cell-based, human; conditions: 1 to 14 days
[1] = test system: polarized human airway epithelial cultures; test: AV2.RSVluc and AV2.RSVlucCap5 transduction of polarized human airway epithelial cultures; type: cell-based; conditions: virus applied to the apical surface
Text: To better understand serotype-specific differences in airway transduction, the effect of proteasome inhibitors on rAAV-2 and rAAV-5 transduction in polarized human airway epithelial cultures and mouse lung was examined (FIGS. 2 and 6).

Solubility in ethanol = type: physicochemical
[2] = test system: polarized human airway epithelial cells; type: cell-based
Method: Primary culture of human bronchial epithelia and reagents utilized. Primary human airway epithelial cells were collected by enzymatic digestion of bronchial samples from lung transplants, as previously described (Kondo et al., 1991; Zabner et al., 1996). Isolated primary airway cells were seeded at a density of 5×10^5 cells/cm^2 onto collagen-coated Millicell-HA culture inserts (Millipore Corp., Bedford, Mass.). Primary cultures were grown at the air-liquid interface for more than 2 weeks, by which time differentiation into a mucociliary epithelium occurs. The culture medium, used to feed only the basolateral side of the cells, contained 49% DMEM, 49% Ham's F12 and 2% Ultraser G (BioSepra, Cedex, France). Dimethyl Sulphoxide (DMSO), camptothecin (Camp), etoposide (Etop), aphidicolin (Aphi), hydroxyurea (HU) and genistein (Geni) were purchased from Sigma (St. Louis, Mo.). Tripeptidyl aldehyde proteasome inhibitors N-Acetyl-L-Leucyl-L-Leucyl-Norleucine (LLnL) and benzyloxycarbonyl-L-leucyl-L-leucyl-L-leucinal (Z-LLL) were purchased from Calbiochem-Novabiochem Corporation (La Jolla, Calif.). Ubiquitin ligase (E3) inhibitors were obtained from Bachem Bioscience Inc. (King of Prussia, Pa.). Anti-AAV capsid monoclonal antibody (Anti-VP1, 2 and 3) was purchased from American Research Products (Belmont, Mass.) and anti-ubiquitin antibody was purchased from Santa Cruz Biotechnology Inc. (Santa Cruz, Calif.).
Transduction of polarized airway epithelial cells and primary human fibroblasts. rAAV infection of fully differentiated bronchial cells was performed as described in Duan et al. (1998). For infections from the apical surface of the airway cells, 5 μl rAAV was mixed with 50 μl of culture media and applied directly onto the apical compartment of Millicell inserts (MOI=10,000 particles/cell). During apical infection, the basolateral side of the Millicell was continuously bathed in culture media. Gene transfer to the basal side was performed by inverting Millicell inserts and applying viral vector to the bottom of the supporting filter membrane in a 50 μl volume for 2 hours. Subsequently, Millicell inserts were returned to the upright position, in the continued presence of the original viral inoculum plus an additional 450 μl of media. For both apical and basolateral infections, rAAV containing media was removed after 24 hours and replaced with either fresh culture media (for the basal side) or exposed to air (for the apical side). To test the effect of different agents on the efficiency of AAV transduction in polarized airway cells, 1 μl of each solution was mixed with AAV prior to infection of airway epithelia. Agents were usually presented during the 24 hours AAV infection period unless indicated otherwise. Most of the agents were dissolved in DMSO except for hydroxyurea (dissolved in phosphate buffered saline), H-Leu-Ala-OH (dissolved in 0.9% glacial acetic acid) and H-His-Ala-OH (dissolved in 50% methanol). The working concentrations of the agents were as follows: 0.1 μM camptothecin, 10 μM etoposide, 5 μg/ml aphidicolin, 40 mM hydroxyurea, 50 μM genistein, 40 μM LLnL and 4 μM Z-LLL. When the ubiquitin ligase (E3) inhibitors (H-Leu-Ala-OH and H-His-Ala-OH) were used, airway cells were pretreated with a combination of both inhibitors at a final concentration of 2 mM for 60 minutes prior to infection, followed by the continued presence of inhibitor (0.2 mM) during the entire 24 hours infection period from the basolateral surface. Studies involving EGTA treatment were performed by transiently treating the apical membrane of polarized airway epithelia with 3 mM EGTA in water for 10 minutes (Duan et al., 1998). Following hypotonic EGTA treatment, cultures were washed twice with culture medium and infected with rAAV in the presence or absence of 40 μM LLnL. Human primary fibroblast cells (P4) were maintained in 10% fetal bovine serum (FBS), 1% penicillin and streptomycin, and 89% DMEM. […]

Molecule: CC(C)C[C@@H](C=O)NC(=O)[C@H](CC(C)C)NC(=O)[C@H](CC(C)C)NC(=O)OCc1ccccc1 [Z-LLL, N-carbobenzoxyl-L-leucinyl-L-leucinyl-L-leucinal] (Cbz-Leu-Leu-Leu-aldehyde)
- enhancement of IB3-1 cell transduction (IB3-1 cells): 30 to 70 fold

Molecule: COc1cccc2c1C(=O)c1c(O)c3c(c(O)c1C2=O)C[C@@](O)(C(=O)CO)C[C@@H]3O[C@H]1C[C@H](N)[C@H](O)[C@H](C)O1 [doxorubicin]
- luciferase expression, Average (mouse lung; both sexes): 1.77E+06
- luciferase expression, Average (mouse lung; female): 5.44E+05
- luciferase expression, Average (mouse lung; male): *4.21E+06
- ENaC Isc time course (ENaC): gradual decline in ENaC Isc

Molecule: N-acetyl-L-leucinyl-L-leucinal-L-norleucinal [LLnL]
- increase in AV2.RSVlucCap5 transduction [1]: 12 fold
- solubility in ethanol (Solubility in ethanol): poor solubility
- augmentation in transgene expression ([2]; applied to the serosal surface along with rAAV, 2 days post infection, 40 μM LLnL): greater than 200 fold
- time of peak augmentation in AAV transduction ([2]; co-administration with rAAV to the mucosal surface): 22 days post-infection
- toxicity of continual administration ([2]; continual administration after basolateral infection): toxic to cells
- time of transient peak in gene expression ([2]; rAAV infection from the serosal surface): 72 hours post-infection
